Data reported in patent publication US11998008B2, “Pesticides and methods of controlling pests” (The State of Israel, Ministry of Agriculture & Rural …, priority 2017, dated 2024).

Assays:
S. rolfsii = assay: Fungicidal activity assay on PDA in sealed Petri dish (growth inhibition and mortality); assay type: cell-based, Sclerotinia rolfsii; conditions: Agroathelia rolfsii; S. rolfsii; NA + number = still viable in the highest concentration tested (given as >); read-out: M - Mortality, minimal concentration that killed the fungus
Experimental: (§1) Each compound was placed on a disconnected cover from an Eppendorf tube that was located in the middle of the Petri dish and a hyphae-containing plug of each test fungus was added to the culture plate. In exemplary procedures, the tested compounds trans-2-heptenal, trans-2-octenal were tested in comparison with octanal, trans-2-octen-1-ol, methyl trans-2-octenoate, trans-3-octen-2-one and 3-pentenenitrile. In addition, cyclic ketones as 2-cyclopenten-1-one, 2-cyclohexen-1-one and α-tetralone were also examined. Then, the culture plate was sealed with parafilm and incubated at room-temperature for 2 days, after which the growth of the test fungi in those dishes was compared with those in the test compound-free control dishes. At the end of the assay, the viability of each test fungus was evaluated by transferring inoculum plugs to fresh PDA plates and observing the growth that developed within the next 2 days. The test fungi used in this study included but were not limited to Alternaria alternata, Botrytis cinerea, Sclerotinia rolfsii, Penicillium digitatum, Fusarium oxysporum f. sp. radicis-cucumerinum and Rhizoctonia solani.

[1] = tested on: F. oxysporum f. sp. radicis-cucumerium; assay: as above; assay type: cell-based, Fusarium oxysporum f. sp. radicis-cucumerinum; conditions: Fusarium oxysporum, NA + number = still viable in the highest concentration tested (given as >), read-out: M - Mortality, minimal concentration that killed the fungus
Experimental: as §1

R. solani = assay: microbe, parasite or virus in culture; assay type: cell-based; conditions: Rhizoctonia solani, read-out: M - Mortality, minimal concentration that killed the fungus
Experimental: as §1

test fungi = assay: Fungicidal activity assay on PDA, summaries over the test fungi; assay type: cell-based; conditions: comparison within the series
Experimental: as §1, with “In exemplary procedures, the fungicidial activity of the compounds listed in Table 2 were examined by activity assays as follow: Petri dishes, 90 mm in diameter, with air volume of 80 mL, contained 10-12 mL of growth medium comprising potato dextrose agar (PDA) (Acumedia, Lansing, Michigan, USA) amended with tetracycline at 12 μg/mL. Each” for “Each”

Meloidogyne javanica J2s = assay: Greenhouse nematocidal experiment with susceptible tomato plants in inoculated loam; assay type: in vivo; conditions: tomato harvested after 8 weeks
Experimental: The activity of trans-2-octenal against nematodes was examined in a greenhouse experiment using stage 2 juveniles of the rot-knot nematode Meloidogyne javanica. […] After 2 days, the inoculated soil was treated with 30 ppm of trans-2-octenal and incubated for additional 5 days. Then, susceptible tomato plants were planted, and allowed to grow in a growing chamber for 8 weeks. At the end of the experiment, the plants, along with their root systems, were harvested from their pots and evaluated for incidence of root galling. In addition, M. javanica eggs were extracted from each root and counted, and the number of eggs per gram root was calculated. As shown in FIGS. 14A-14D, trans-2-octenal reduced the galling index and the number of eggs per gram root. […] The activity of 2-cyclohexen-1-one against nematodes was examined in a greenhouse experiment using stage 2 juveniles of the rot-knot nematode Meloidogyne javanica. The experiment was performed as described for trans-2-octenal. […] After 2 days, the inoculated soil was treated with 15 or 31 ppm of 2-cyclohexen-1-one and incubated for additional 5 days. Then, susceptible tomato plants were planted, and allowed to grow in a growing chamber for 8 weeks. At the end of the experiment, the plants, along with their root systems, were harvested from their pots and evaluated for incidence of root galling. In addition, M. javanica eggs were extracted from each root and counted, and the number of eggs per gram root was calculated.

[2] = tested on: tomato seedlings strain Ikram; assay: Phytotoxic effect on tomato seedlings in pots of pretreated loam soil; assay type: in vivo; conditions: 9 days
Experimental: The phytotoxic effect of 2-cyclohexen-1-one in pots was examined on tomato seedlings strain Ikram. Pots (9-10 repetitions) were filled with 500 g of loam soil pretreated with 2-cyclohexen-1-one at final concentration of 0, 50, and 60 ppm. Then, tomato seedling was planted in each pot and allowed to grow for 9 days. The phytotoxic effect was evaluated by counting the number of live seedling and measuring their heights.

peanut seeds = assay: Phytotoxic effect on peanut seeds in pots of loam soil; assay type: in vivo; conditions: 16 days; for Number of germinated seeds: 9 seeds sown
Text: The phytotoxic effect of 2-cyclohexen-1-one was also examined on peanut seeds. The concentrations tested were: 0, 10, 20, and 40 ppm, 3 pots for each concentration. After mixing the loam soil with 2-cyclohexne-1-one, three peanut seeds were sown in each pot and let to grow for 16 days.

[3] = tested on: lettuce seedling strain Raviv; conditions: in vivo, 3 days
Experimental: (§2) An experiment in a larger scale was performed in loam soil in which the seedling were planted directly in the treated plot. The soil was treated with 0, 25, 50, 100, 200, 400, 800, and 1,600 ppm of emulsion of trans-2-octenal. The compound was applied using the irrigation system. A day later, tomato seedling strains Ikram and Abigail and lettuce seedling strain Raviv (10 seedlings each) were planted into the treated soil of each concentration. Eleven days later, the number of viable seedlings was counted.

tomato strain Ikram = conditions: in vivo, 3 days
Experimental: as §2

tomato strain Kilates = conditions: in vivo, 3 days
Experimental: The soil was treated with 0, 400 and 800 ppm of emulsion of 2-cyclohexene-1-one. The compound was applied using the irrigation system. A day later, tomato seedling strains Ikram, and Kilates and lettuce seedling strain Raviv (10 seedlings each) were planted into the treated soil of each concentration. Three (3) days later, the number of seedlings was counted.

`O=C1C=CCCC1` [2-cyclohexen-1-one] showed an MFC (S. rolfsii) greater than 25 µg/mL, an MFC [1] greater than 25 µg/mL and an MFC (R. solani) greater than 25 µg/mL. The “fungicidal activity in words” value (test fungi) was “fungicidal activity, to some extent”, the “concentration sufficient to reduce the galling index and the number of eggs per gram root” value (Meloidogyne javanica J2s) was 15 ppm and the “% Viability” value ([2]; 50 ppm) was 100%. For the same compound, the “Seedling height (Mean ± SD)” value ([2]; 50 ppm) was 21 ± 3 cm, the “% Viability” value ([2]; 60 ppm) was 67% and the “Seedling height (Mean ± SD)” value ([2]; 60 ppm) was 16 ± 2 cm. For the same compound, the “concentration at which phytotoxic effect was obtained” value ([2]; of 0, 50 and 60 ppm tested) was 60 ppm, the “% Viability” value (peanut seeds; 10 ppm) was 89% and the “Number of germinated seeds” value (peanut seeds; 10 ppm) was 8. The “% Viability” value (peanut seeds; 20 ppm) was 100%, the “Number of germinated seeds” value (peanut seeds; 20 ppm) was 9 and the “% Viability” value (peanut seeds; 40 ppm) was 89%. For the same compound, the “Number of germinated seeds” value (peanut seeds; 40 ppm) was 8, the “concentration at which phytotoxic effect was displayed” value [3] was 800 ppm and the “concentration at which phytotoxic effect occurred” value (tomato strain Ikram) was 400 ppm. The “concentration at which phytotoxic effect occurred” value (tomato strain Kilates) was 400 ppm.
